Results: patent US20120295838A1, “Selective poly-substituted glycine antibiotics and related compositions” (priority 2008, published 2012)
Read-outs that look alike come from different tables or passages of the source. Square brackets hold non-standard residues; d marks the D form. Peptide text beside a SMILES is read from it. Nspe = C[C@H](NCC(=O)O)c1ccccc1; Nphe = O=C(O)CNCc1ccccc1; Nlys = NCCCCNCC(=O)O

Columns and labels:
E. coli ATCC 35218 = assay type: cell-based
Method: (§1) Whereas the preceding generation of molecules was designed to elucidate structure function relationships of specific molecular parameters (chirality, length, hydrophobicity, etc.), another generation compounds were designed explicitly to explore effects on selectivity. Antimicrobial activity of these compounds was tested against bacterial strains E. coli (ATTC 35218) and B. subtilis (ATTC 6633) in cation-adjusted MHB using the microdilution protocols previously described. The sequences, antimicrobial activities, hemolytic activities, and metabolic inhibitory concentrations against NIH 3T3 mouse fibroblast cells are summarized in Table 3 and the rationale of their design is described below.
(§2) Screening antibacterial assays. MICs were determined in 96-well microtiter plates in accordance with CLSI M7-A6 protocols. Peptoid solutions with 50 μL total volume were prepared using 2:1 serial dilutions. 50 i—tL of bacteria inoculum (1×10^6 CFU/mL) prepared in cation-adjusted Mueller-Hinton broth (CAMHB) was added to test wells. Control wells contained 100 μL MHB (no growth) or 50 μL inoculums with 50 μL MHB with no peptoid. […] Reported values were reproducible over three experiments, each containing two parallel trials.
(§3) Antibacterial Assays for Compositions. MICs were determined according to CLSI M7-A6 protocols in a 96-well microtiter plate. In test wells, 50 μL bacterial inoculum (1×10^6 CFU/ml) in cation-adjusted Mueller-Hinton broth (CAMHB) was added to 50 μL peptoid solution in CAMHB (prepared by 1:2 serial dilutions). Positive controls contained 50 μL inoculum and 50 μL CAMHB without peptoid. […] MIC values reported were reproducible between three independent experimental replicates, each consisting of two parallel trials.

B. subtilis ATCC 6633 = assay type: cell-based; settings: ATCC 6633
Method: as §1, §2, §3

human erythrocytes = test: Hemolysis assay; assay type: cell-based
Method: (§4) Hemolysis assays. Erythrocytes were isolated from freshly drawn, heparanized human blood and resuspended to 20 vol % in PBS (pH 7.4). In a 96-well microtiter plate, 100 μL erythrocyte suspension was added to 100 uL peptoid solution in PBS (prepared by 1:2 serial dilutions), or 100 μL PBS in the case of negative controls. 100% hemolysis wells contained 100 μL, blood cell suspension with 100 μL 0.2 vol % Triton X-100. The plate was incubated for 1 h at 37° C., then each well was diluted with 1504 PBS. The plate was then centrifuged at 1200 g for 15 min, 100 μL of the supernatant from each well transferred to a fresh microtiter plate, and A350 measured.
Hemolysis assays. Erythrocytes were isolated from freshly drawn, heparanized human blood and resuspended in PBS (pH 7.4) to make a 20% volume suspension. Peptoid solutions were prepared by serial dilution (2:1) in a 96-well microtiter plate. For test wells, 100 μLL of erythrocyte suspension was added to 100 μL of peptoid solution in PBS; PBS without peptoid was used as the negative control and 0.2 vol % Triton X-100 as the positive control that indicates 100% hemolysis. After 1 hour incubation at 37° C., each well was diluted with 150 μL PBS. Plates were then centrifuged at 1,200×g for 15 minutes to pellet the cells. 30 μL of the supernatant from each well were transferred to the corresponding well of a second 96-well plate that contains 70 μL PBS.
as §4, with “assays for Compositions.” for “assays.”, “100” for “100 uL”, “μL” for “μL,”, “150 μL” for “1504”, “1200g” for “1200 g”

MTS assay, NIH 3T3 cells = assay type: cell-based, mouse; settings: mouse, NIH 3T3 fibroblast cells
Method: (§5) The potencies of all compounds were determined against representative Gram-negative (E. coli ATCC 35218) and Gram-positive (B. subtilis ATCC 6633) biosafety level 1 (BSL1) organisms. In addition to hemolytic activity, the conventional measure of toxicity to mammalian cells, the effect of each ampetoid on NIH 3T3 mouse fibroblast cells was determined using the MTS tetrazolium salt-based colorimetric assay. While hemolysis measures the degree to which erythrocytes are lysed, the MTS assay indirectly quantifies the extent to which cellular metabolic activity is inhibited.
(§6) MTS assays. NIH/3T3 cells (ATCC Corporation) cultured at 37° C. and 5% CO2 in complete Dulbecco's modified eagle's media (CDMEM) supplemented with 1% sodium pyruvate, 1% penicillin-streptomycin, 1.5 g/L NaHCO3, and 10% fetal bovine serum. Cells were seeded at a density of 5,000 cells per well for NIH/3T3 cells in 96-well plates (100 μl total volume). A peptoid solution plate (100 μL total volume per well) was prepared by serial dilution of aqueous peptoid stock solution in Hank's balanced salt solution (HBSS) media. The day-old cell monolayers were washed with HBSS and media was replaced with 100 μL HBSS. The contents of the peptoid solution plate were transferred onto corresponding wells of the cell monolayer plate, and 40 μL MTS reagent (Promega, Inc.) was added to each well. After incubating for 3 hours at 37° C., absorbance at 490 nm was determined. […] The average of six replicates is reported.

[1] = system: NIH 3T3 mouse fibroblast cells; test: MTS assay, NIH 3T3 cells; assay type: cell-based
Method: as §5, §6

[2] = RP-HPLC solvent composition at elution as measure of molecular hydrophobicity; assay type: physicochemical; settings: Table 8; gradient 5 to 95% ACN over 45 min, C18 column, 0.2 ml/min; average of three replicates
Source text: An initial set of 15 ampetoid analogs was synthesized to determine whether peptoids are affected by structural and sequence modifications in a manner consistent with AMP activities. The designs for ampetoids in this library were derived from two antibacterial and selective amphipathic dodecamers, 1 and 2. Peptoid 1 [H-(Nlys-Nspe-Nspe)4-NH2] is composed of 2/3 Nspe, the peptoid analog of phenylalanine, and 1/3 Mys, the peptoid analog of lysine (see FIG. 1 for the structures of representative peptoid monomers and corresponding N-substituents). Peptoid 2 [H-(Mys-Nssb-Nspe)4-NH2] contains 1/3 isoleucine-like Nssb monomers in place of Nspe. The variant sequences were designed to effect changes in chirality, length, hydrophobicity, charge, and amphipathicity. All of these compounds were tested for antibacterial activity against representative BSL1 Gram-negative (E. coli JM109) and Gram-positive (B. subtilis BR151) bacterial strains. As an initial measure of selectivity, the lytic activity of the peptoids was determined against human erythrocytes. Table 1 summarizes the sequences synthesized, the solvent composition at RP-HPLC elution as a relative measure of molecular hydrophobicity, and antibacterial and hemolytic activities.
Following synthesis, peptoid oligomers can be cleaved from the resin, simultaneously removing the tert-butoxycarbonyl (Boc) protecting group from Mys residues, by treatment with 10 ml 2,2,2-trifluoroacetic acid (TFA)/triisopropylsilane/H2O (95:2.5:2.5 by volume) for 30 min. The cleavage mixture is then diluted with 25 ml 50% aqueous acetonitrile, frozen, and lyophilized. Dilution and lyophilization is repeated twice more in order to remove excess TFA. Subsequent to cleavage, peptoids are each purified to >97% homogeneity by preparative scale reversed-phase HPLC using a Waters Prep LC 4000 system, with Waters 2487 dual-wavelength UV detection, and gradient elution (solvent A, 0.1 vol % trifluoroacetic acid (TFA) in water; solvent B, 0.1 vol % TFA in acetonitrile) through a Vydac (Hysperia, Calif.) 214TP101550 C4 peptide/protein column (10-15 μm, 300 Å, 5×25 cm). Following prep HPLC, peptoid purities and crude yields were determined from analytical scale HPLC, performed with a Waters 2695 Separations Module with a Waters 2487 dual-wavelength UV detector and gradient elution (solvent A, 0.1 vol % TFA in water; solvent B, 0.1 vol % TFA in acetonitrile) through a Vydac C4 214TP53 peptide/protein column (5 μm, 300 Å, 3.2×250 mm). The precise gradient employed for HPLC depended on the identity and hydrophobicity of the oligomer in question. All analytical HPLC was performed at 0.5 ml/min flow and 58° C. Preparative HPLC was performed at 50 ml/min flow and room temperature.
Compound synthesis and purification. Peptoids were synthesized using an ABI 433A peptide synthesizer (Applied Biosystems, Inc.) on Rink amide MBHA resin (Novabiochem, Inc.) using the submonomer approach^3. Briefly, bromoacetic acid, activated by diisopropylcarbodiimide was used to form a bromocetylated intermediate on the terminal amide group. Bromide was then substituted with the desired primary amine through SN2 displacement to build the peptoid chain. The amines used in peptoid synthesis include benzylamine, octadecylamine, (s)-(+)-2-amino-3-methylbutane, (s)-α-methylbenzylamine, (r)-(α-methylbenzylamine (all purchased from Sigma-Aldrich), and N-tert-butoxycarbonyl-1,4 diaminobutane (Mys) that was made using a published procedure^83. Resin-bound peptoids were then exposed to a mixture of trifluoroacetic acid (TFA): triisopropylsilane:water (95:2.5:2.5, v:v:v) for ten minutes to cleave peptoids from the solid phase. Peptoids were purified by reversed-phase HPLC (RP-HPLC) (Waters Corporation) using a C18 column and a linear acetonitrile/water gradient. A final purity greater than 97% as measured by analytical RP-HPLC (Waters Corporation) was achieved, and the identity of each molecule was checked using electrospray ionization mass spectrometry. […]

SMILES	E. coli MIC (E. coli ATCC 35218; ATCC 35218) [µM]	CC50 at 3 h (MTS assay, NIH 3T3 cells) [µM]	ID50 [1] [µM]	also measured
C[C@@H](c1ccccc1)N(CC(N)=O)C(=O)CN(CCCCN)C(=O)CN(CCCCN)C(=O)CN(C(=O)CN(C(=O)CN(CCCCN)C(=O)CN(C(=O)CN(CCCCN)C(=O)CN(CCCCN)C(=O)CN(C(=O)CN(C(=O)CNCCCCN)[C@@H](C)c1ccccc1)[C@@H](C)c1ccccc1)[C@@H](C)c1ccccc1)[C@@H](C)c1ccccc1)[C@@H](C)c1ccccc1 [1-Nlys5,11, H-(Nlys-Nspe-Nspe-Nlys-Nlys-Nspe)2-NH2] (H-[Nlys][Nspe][Nspe][Nlys][Nlys][Nspe][Nlys][Nspe][Nspe][Nlys][Nlys][Nspe]-NH2)	50	85	–	MIC for E. coli ATCC 35218 (E. coli ATCC 35218; ATCC 35218): 30 µM; MIC for B. subtilis ATCC 6633 (B. subtilis ATCC 6633): 0.78 µM; HD10 (human erythrocytes): >200/>200 μM; HD50 (human erythrocytes): >200/>200 μM
C[C@@H](c1ccccc1)N(CC(N)=O)C(=O)CN(C(=O)CN(CCCCN)C(=O)CN(Cc1ccccc1)C(=O)CN(Cc1ccccc1)C(=O)CN(CCCCN)C(=O)CN(C(=O)CN(C(=O)CN(CCCCN)C(=O)CN(Cc1ccccc1)C(=O)CN(Cc1ccccc1)C(=O)CNCCCCN)[C@@H](C)c1ccccc1)[C@@H](C)c1ccccc1)[C@@H](C)c1ccccc1 [1-Npm2,3,8,9, H-(Nlys-Npm-Npm-Nlys-Nspe-Nspe)2-NH2]	6.3	15	15	–
C[C@@H](c1ccccc1)N(CC(=O)N(CC(=O)N(CCCCN)CC(=O)N(CC(=O)N(CC(=O)N(CCCCN)CC(=O)N(CC(=O)N(CC(=O)N(CCCCN)CC(=O)N(CC(=O)N(CC(N)=O)Cc1ccccc1)Cc1ccccc1)Cc1ccccc1)Cc1ccccc1)Cc1ccccc1)Cc1ccccc1)Cc1ccccc1)C(=O)CNCCCCN [1ach-Nspe2, H-(Nlys-Nspe-Npm)-(Nlys-Npm-Npm)3-NH2] (H-[Nlys][Nspe][Nphe][Nlys][Nphe][Nphe][Nlys][Nphe][Nphe][Nlys][Nphe][Nphe]-NH2)	6.3	11	11	–
C[C@@H](c1ccccc1)N(CC(N)=O)C(=O)CN(C(=O)CN(CCCCN)C(=O)[C@@H]1CCCN1C(=O)CN(C(=O)CN(CCCCN)C(=O)CN(C(=O)CN(C(=O)CN(CCCCN)C(=O)CN(C(=O)CN(C(=O)CNCCCCN)[C@@H](C)c1ccccc1)[C@@H](C)c1ccccc1)[C@@H](C)c1ccccc1)[C@@H](C)c1ccccc1)[C@@H](C)c1ccccc1)[C@@H](C)c1ccccc1 [1-Pro9, H-(Nlys-Nspe-Nspe)2-Nlys-Nspe-L-Pro-Nlys-Nspe-Nspe-NH2] (H-[Nlys][Nspe][Nspe][Nlys][Nspe][Nspe][Nlys][Nspe]P[Nlys][Nspe][Nspe]-NH2)	12.5	24	24	–
CC[C@H](C)[C@H](NC(=O)CN)C(=O)NCC(=O)N[C@@H](C)C(=O)N[C@H](C(=O)N[C@@H](CC(C)C)C(=O)N[C@@H](CCCCN)C(=O)N[C@H](C(=O)N[C@@H](CC(C)C)C(=O)N[C@H](C(=O)N[C@H](C(=O)NCC(=O)N[C@@H](CC(C)C)C(=O)N1CCC[C@H]1C(=O)N[C@@H](C)C(=O)N[C@@H](CC(C)C)C(=O)N[C@H](C(=O)N[C@@H](CO)C(=O)N[C@@H](Cc1c[nH]c2ccccc12)C(=O)N[C@H](C(=O)N[C@@H](CCCCN)C(=O)N[C@@H](CCCNC(=N)N)C(=O)N[C@@H](CCCCN)C(=O)N[C@@H](CCCNC(=N)N)C(=O)N[C@@H](CCC(N)=O)C(=O)N[C@@H](CCC(N)=O)C(N)=O)[C@@H](C)CC)[C@@H](C)CC)[C@@H](C)O)[C@@H](C)O)C(C)C)C(C)C [melittin, reference compound]	–	–	–	MIC for E. coli ATCC 35218 (E. coli ATCC 35218; Table 8, CAMHB): 12.5 µM; SR (E. coli ATCC 35218; Table 8, calculated as HD10/E. coli MIC): 0.16; HD50 (human erythrocytes; Table 8): 6 µM; % ACN at RP-HPLC elution [2]: 65.2 % ACN
